What all share (format): functional
The test system of experiment [1] is Pseudomonas aeruginosa. Kind of experiment: Antibacterial activity against Pseudomonas aeruginosa CMCC 10104 after 24 hrs by agar dilution method. The settings on record: CMCC 10104, 24 h. A general note: In agar dilution, organisms are placed on agar that contains the substance at set levels.
Experiment [2] concerns Escherichia coli. The experiment is described as follows: Antibacterial activity against Escherichia coli CMCC 44103 after 24 hrs by agar dilution method. To be noted: CMCC 44103, 24 h.
Experiment [3] relates to Staphylococcus aureus. Kind of experiment: Antibacterial activity against Staphylococcus aureus CMCC 26003 after 24 hrs by agar dilution method. To be noted: CMCC 26003, 24 h.

In brackets after ≈: the same amount, converted by molar mass.

On to `C[C@H]1COc2c(NC(=O)[C@H]3CC[C@H](COc4ccccc4)CC3)c(F)cc3c(=O)c(C(=O)O)cn1c23`, for which the MIC is over 32 µg/mL in experiment [1], 16 µg/mL (≈ 32.4 µM) in experiment [2] and over 32 µg/mL in experiment [3].

For `Cc1cccc(C)c1OC[C@H]1CC[C@H](C(=O)Nc2c(F)cc3c(=O)c(C(=O)O)cn4c3c2OC[C@@H]4C)CC1`, the MIC in experiment [1], in experiment [2] and in experiment [3] was over 32 µg/mL in each case.

In the case of `C[C@H]1COc2c(NC(=O)[C@H]3CC[C@H](COc4cccc(F)c4F)CC3)c(F)cc3c(=O)c(C(=O)O)cn1c23`, the minimal inhibitory concentration (MIC) was over 32 µg/mL in experiment [1], over 32 µg/mL in experiment [2] and 32 µg/mL (≈ 60.3 µM) in experiment [3].

On to `C[C@H]1COc2c(NC(=O)[C@H]3CC[C@H](COc4ccc([N+](=O)[O-])cc4)CC3)c(F)cc3c(=O)c(C(=O)O)cn1c23`, for which the MIC in experiment [1], in experiment [2] and in experiment [3] was over 32 µg/mL each time.

Take `C[C@H]1COc2c(NC(=O)[C@H]3CC[C@@H](COc4ccccc4)CC3)c(F)cc3c(=O)c(C(=O)O)cn1c23`: the results for the minimal inhibitory concentration (MIC) in experiment [1], in experiment [2] and in experiment [3] were over 32 µg/mL, 8 µg/mL (≈ 16.2 µM) and over 32 µg/mL, respectively.

For the compound `Cc1cccc(C)c1OC[C@H]1CC[C@@H](C(=O)Nc2c(F)cc3c(=O)c(C(=O)O)cn4c3c2OC[C@@H]4C)CC1`, the MIC in experiment [1], in experiment [2] and in experiment [3] was over 32 µg/mL in each case.

With `C[C@H]1COc2c(NC(=O)[C@H]3CC[C@@H](COc4cccc(F)c4F)CC3)c(F)cc3c(=O)c(C(=O)O)cn1c23`, the minimal inhibitory concentration (MIC) in experiment [1] is 1 µg/mL (≈ 1.89 µM); in experiment [2] it was over 32 µg/mL; in experiment [3], 2 µg/mL (≈ 3.77 µM).

`C[C@H]1COc2c(NC(=O)[C@H]3CC[C@@H](COc4ccc([N+](=O)[O-])cc4)CC3)c(F)cc3c(=O)c(C(=O)O)cn1c23`: the minimal inhibitory concentration (MIC) in experiment [1], in experiment [2] and in experiment [3] was over 32 µg/mL each time.

For `COc1c(NC(=O)[C@H]2CC[C@H](COc3ccccc3)CC2)c(F)cc2c(=O)c(C(=O)O)cn(C3CC3)c12`, the minimum inhibitory concentration (MIC) in experiment [1], in experiment [2] and in experiment [3] was over 32 µg/mL throughout.

Take `COc1c(NC(=O)[C@H]2CC[C@H](COc3c(C)cccc3C)CC2)c(F)cc2c(=O)c(C(=O)O)cn(C3CC3)c12`: the MIC in experiment [1], in experiment [2] and in experiment [3] was over 32 µg/mL throughout.

Take `COc1c(NC(=O)[C@H]2CC[C@H](COc3cccc(F)c3F)CC2)c(F)cc2c(=O)c(C(=O)O)cn(C3CC3)c12`: the MIC in experiment [1], in experiment [2] and in experiment [3] was over 32 µg/mL throughout.

As to `COc1c(NC(=O)[C@H]2CC[C@H](COc3ccc([N+](=O)[O-])cc3)CC2)c(F)cc2c(=O)c(C(=O)O)cn(C3CC3)c12`, the minimal inhibitory concentration (MIC) in experiment [1], in experiment [2] and in experiment [3] was over 32 µg/mL each time.

Turning to `COc1c(NC(=O)[C@H]2CC[C@@H](COc3ccccc3)CC2)c(F)cc2c(=O)c(C(=O)O)cn(C3CC3)c12`, the MIC in experiment [1] was over 32 µg/mL; in experiment [2], over 32 µg/mL; in experiment [3], 4 µg/mL (≈ 7.87 µM).

Take `COc1c(NC(=O)[C@H]2CC[C@@H](COc3c(C)cccc3C)CC2)c(F)cc2c(=O)c(C(=O)O)cn(C3CC3)c12`: the MIC in experiment [1], in experiment [2] and in experiment [3] was over 32 µg/mL in each case.

Regarding `COc1c(NC(=O)[C@H]2CC[C@@H](COc3cccc(F)c3F)CC2)c(F)cc2c(=O)c(C(=O)O)cn(C3CC3)c12`, the MIC in experiment [1], in experiment [2] and in experiment [3] was over 32 µg/mL each time.

Consider `COc1c(NC(=O)[C@H]2CC[C@@H](COc3ccc([N+](=O)[O-])cc3)CC2)c(F)cc2c(=O)c(C(=O)O)cn(C3CC3)c12`, for which the minimal inhibitory concentration (MIC) came out at 2 µg/mL (≈ 3.61 µM) in experiment [1], 0.25 µg/mL (≈ 0.452 µM) in experiment [2] and 1 µg/mL (≈ 1.81 µM) in experiment [3].

Consider `CCn1cc(C(=O)O)c(=O)c2cc(F)c(NC(=O)[C@H]3CC[C@H](COc4ccccc4)CC3)c(F)c21`, for which the MIC in experiment [1], in experiment [2] and in experiment [3] was over 32 µg/mL throughout.

For `CCn1cc(C(=O)O)c(=O)c2cc(F)c(NC(=O)[C@H]3CC[C@H](COc4cccc(F)c4F)CC3)c(F)c21`, the MIC in experiment [1], in experiment [2] and in experiment [3] was over 32 µg/mL in each case.

On to `CCn1cc(C(=O)O)c(=O)c2cc(F)c(NC(=O)[C@H]3CC[C@H](COc4ccc([N+](=O)[O-])cc4)CC3)c(F)c21`, for which the minimal inhibitory concentration (MIC) in experiment [1], in experiment [2] and in experiment [3] was over 32 µg/mL each time.

`CCn1cc(C(=O)O)c(=O)c2cc(F)c(NC(=O)[C@H]3CC[C@@H](COc4ccccc4)CC3)c(F)c21`: the MIC in experiment [1], in experiment [2] and in experiment [3] was over 32 µg/mL in each case.

As for `CCn1cc(C(=O)O)c(=O)c2cc(F)c(NC(=O)[C@H]3CC[C@@H](COc4c(C)cccc4C)CC3)c(F)c21`, the MIC in experiment [1], in experiment [2] and in experiment [3] was over 32 µg/mL each time.

With `CCn1cc(C(=O)O)c(=O)c2cc(F)c(NC(=O)[C@H]3CC[C@@H](COc4cccc(F)c4F)CC3)c(F)c21`, the minimal inhibitory concentration (MIC) in experiment [1], in experiment [2] and in experiment [3] was over 32 µg/mL throughout.

In the case of `CCn1cc(C(=O)O)c(=O)c2cc(F)c(NC(=O)[C@H]3CC[C@@H](COc4ccc([N+](=O)[O-])cc4)CC3)c(F)c21`, the values for the minimum inhibitory concentration (MIC) in experiment [1], in experiment [2] and in experiment [3] were over 32 µg/mL, over 32 µg/mL and 4 µg/mL (≈ 7.55 µM), respectively.

For the compound `CCn1cc(C(=O)O)c(=O)c2cc(F)c(NC(=O)[C@H]3CC[C@H](COc4c(C)cccc4C)CC3)c(F)c21`, the MIC in experiment [1], in experiment [2] and in experiment [3] was over 32 µg/mL in each case.

As for `CCn1cc(C(=O)O)c(=O)c2cc(F)c(N3CCNC(C)C3)c(F)c21` (stereo not given) [LOMEFLOXACIN], the MIC in experiment [1] was determined as 8 µg/mL (≈ 22.8 µM); in experiment [2] it was 2 µg/mL (≈ 5.69 µM); in experiment [3], 4 µg/mL (≈ 11.4 µM).

The term MIC denotes the least concentration at which growth counts as inhibited. A higher MIC goes with a need for much substance.

These data come from ChEMBL document CHEMBL2203195, “Synthesis and antibacterial activity of new fluoroquinolones containing a cis- or trans-cyclohexane moiety” (2012).
